Data on 23 molecules can be found in patent publication US20100168112A1, “2-Substituted and 4-substituted aryl nitrone compounds” (RENOVIS, INC., priority 2004, published 2010).

Structures can show the parent of a compound that is named as a salt.

Data set [1] is described as follows: DPPH free radical-scavenging/antioxidant assay. The class given is biochemical. Conditions: 50 μM DPPH in 80% methanol; 24 h time point; read-out: EC50 (concentration at which a compound reduces by 50% the peak absorbance of DPPH at 520 nm). On the procedure: Nitrone compounds of the present invention were tested for their free-radical scavenging/antioxidant activity in an in vitro assay that is accepted by those skilled in the art as a model for conditions involving the generation of free radicals. The assay is based on a reaction between a free-radical donor, 2,2-diphenyl-1-picrylhydrazyl (DPPH), and a radical scavenger/antioxidant to be tested for free-radical scavenging activity. Upon donation of the free-radical electron to the purported radical scavenger, the peak visible absorbance of DPPH (515-520 nm) decreases so that optical density readings at this part of the visual spectrum reflect the progression of the following reaction:
where AH is a hypothetical radical scavenger/antioxidant. The assay is based on a protocol originally detailed in Brand-Williams, W. et al., 1995, Use of a Free Radical Method to Evaluate Antioxidant Activity, Lebensm. Wiss. Technol., 28:25-30, with further modifications described in L. R. Fukumoto and G. Mazza, 2000, Assessing Antioxidant and Prooxidant Activities of Phenolic Compounds, J. Agric. Food Chem., 48:3597-3604.
The antioxidant assay was performed using Perkin-Elmer 96-well, clear-bottom, black-wall plates (ordered from E & K Scientific Products) and a Tecan Safire absorbance plate reader. The positive controls were Trolox (6-hydroxy-2,5,7,8-tetramethylchromane-2-carboxylic acid, Sigma-Aldrich), BHA (2(3)-tert-butylhydroquinone monomethyl ether, Sigma-Aldrich), PBN (C-(phenyl)-N-(tert-butyl)nitrone, Sigma-Aldrich) and S-PBN (C-(2-sulfophenyl)-N-(tert-butyl)nitrone, sodium salt, prepared according to E. G. Janzen and R. V. Shetty, 1979, Tetrahedron Lett., 35: 3229-32), and the negative control (i.e., vehicle) was DMSO. In brief, 2 μL of 100× DMSO stock of the desired final concentration of each control or nitrone compound to be tested in the same batch was added to a separate well. To each well was then added 198 μL of a freshly made 50 μM DPPH (Sigma-Aldrich) solution in 80% methanol using a multi-channel pipette. The absorbance was immediately read on the plate reader at 520 nm and thereafter read periodically to assess kinetics until all reactions reached completion (i.e., steady state). Since the steady-state point was 24 h, the assay results are shown from the 24 h time point. The absorbance at 520 nm (OD) was plotted versus the concentrations of the controls and nitrone compounds to assess dose-response and interpolate the EC50 values of the controls and test compounds.
A general note: DPPH is a stable violet radical that fades when it is reduced.

A short description of data set [2]: Pharmacokinetic evaluation following intravenous and oral administration in rats. It counts as in vivo. Conditions: male, Sprague-Dawley; for Cmax / Tmax / bioavailability: 5 mg/kg; for Cmax: rat plasma; for Cmax / Tmax: oral gavage, 2 mg/mL at 2.5 mL/kg; for clearance / Vd / Tmax / bioavailability / half-life: plasma, rat; for clearance / Vd / half-life: 1 mg/kg; for clearance / Vd: intravenous administration, 1 mg/mL at 1.0 mL/kg; for clearance: read-out: CI (clearance) (converted); for Vd: read-out: Vd (volume of distribution); for bioavailability: po 2 mg/mL at 2.5 mL/kg vs iv 1 mg/mL at 1.0 mL/kg, dose-normalized, read-out: F (%) oral bioavailability; for half-life: intravenous, read-out: T1/2 elimination half life (converted). Here is the method: Male Sprague-Dawley rats were given at least 24 hours acclimation before experiment initiation. During acclimation period, all animals received food and water ad libitum. However, food (not water) was removed from the animal's cages up to 12 hours before initiation of the experiment. During the first 4 hours of experimentation, the animals received only water ad libitum. Two to three animals for iv and three animals for oral administration were tested. For iv formulation nitrone compounds of this invention were dissolved (1 mg/mL) in a mixture of 5% dimethyl acetamide (v/v), 0 to 4% Tween 80 (v/v), 10 to 40% PEG 400 (v/v) and the rest percentage of water (v/v). For oral formulation nitrone compounds of this invention were dissolved (2 mg/mL) in a mixture of 4% of 10% Tween in water and 96% of 0.5% carboxymethyl cellulose (medium viscosity) in water; or 4% of 10% Tween in water, 48% of 0.5% carboxymethyl cellulose (medium viscosity) in water, and 48% of 0.5% Hydroxypropyl Methylcellulose/0.2% Sodium Lauryl Sulfate in water. These formulations were stored at 5° C. until the experiment. Formulations were then stir-mixed at least half an hour before dosing. Exactly 200 μL of each left-over formulation was diluted with CH3CN/H2O for concentration analysis. The animals were weighed before dosing. The body weight was used to calculate the true dose for each animal:
IV dosing: • Dose volume (mL)=1.0 mL/kg The intravenous dose was administered through the jugular vein catheter or tail vein in less than 1 minute.
PO dosing: • Dose volume (mL)=2.5 mL/kg The oral dose was administered by oral gavage.
For IV dosing, blood samples were collected (using a pre-heparinized syringe) via the carotid artery or jugular vein catheter at t=2, 5, 15, 30, 60, 120, 180, 360, and 480 minutes post dosing. For PO dosing, blood samples were collected (using a pre-heparinized syringe) via the carotid artery or jugular vein catheter before dosing and at t=5, 15, 30, 60, 120, 180, 360, and 480 minutes post dosing. For some nitrone compounds a 1440 minutes (24 hours) sample was also taken for both IV and PO administrations. About 250 μL of blood was obtained at each time point from the animals. Equal volumes of 0.9% normal saline were replaced to prevent dehydration. The whole blood samples were maintained on ice until centrifugation. Blood samples were then centrifuged at 14,000 rpm for 10 minutes at 4° C. and the upper plasma layer transferred into a clean vial and stored at −80° C. The resulting plasma samples were then analyzed by mass spectroscopy using standard methods.
All the samples from above assays were analyzed on a PE-Sciex API 3000 triple quadrupole with a Turbo Ion Spray source. Nitrone compounds of this invention were separated from the matrix via a linear gradient reverse-phase chromatography using a C18 column, such as Thermo BDS Hypersil C18 (100×4.6 mm, 5 micron particle, 120A pore size). The mobile Phases were:
Nitrone compounds were detected by the mass spectrometer in the positive ion multiple reaction monitoring mode (MRM). For quantitative analysis, a standard curve was prepared by spiking a stock solution of the nitrone compound to the appropriate matrix to achieve a quantitation curve range and analyzed the standards in the same manner as the samples.
Pharmacokinetic parameters of the aryl nitrone compounds were determined by a noncompartmental analysis using WinNonlin-Pro (Version 4.1, Pharsight Corporation). Average and standard deviation of the parameters were calculated using standard formulas in Microsoft Excel.

“2(3)-tert-butylhydroquinone monomethyl ether [BHA, reference compound]”: the EC50 in data set [1] was under 10 µM. Take `COC(=O)c1ccccc1/C=[N+](\[O-])C(C)(C)C` [Compound 1, N-(tert-Butyl)-C[2-(methoxycarbonyl)phenyl]nitrone]: in data set [1], the EC50 lay within 500 to 1000 µM.

Consider `COC(=O)c1ccccc1/C=[N+](\[O-])C1CCCCC1` [Compound 2, N-Cyclohexyl-C-[2-(methoxycarbonyl)phenyl]nitrone], for which the EC50 in data set [1] was over 1000 µM.

In the case of `COC(=O)c1ccccc1/C=[N+](\[O-])Cc1ccccc1` [Compound 3, N-Benzyl-C-[2-(methoxycarbonyl)phenyl]nitrone], the EC50 in data set [1] is 500 to 1000 µM. Still for that read-out and setting: under `COC(=O)c1c(/C=[N+](\[O-])C(C)(C)C)cc(OC)cc1OC` [Compound 4, N-(tert-Butyl)-C-[2-(methoxycarbonyl)-3,5-dimethoxyphenyl]-nitrone] stands 100 to 500 µM.

For `COC(=O)c1c(/C=[N+](\[O-])C2CCCCC2)cc(OC)cc1OC` [Compound 5, N-Cyclohexyl-C-[2-(methoxycarbonyl)-3,5-dimethoxyphenyl]-nitrone], the EC50 in data set [1] lay in the range of 100 to 500 µM.

Take `COC(=O)c1c(/C=[N+](\[O-])Cc2ccccc2)cc(OC)cc1OC` [Compound 6, N-Benzyl-C-[2-(methoxycarbonyl)-3,5-dimethoxyphenyl]-nitrone]: the EC50 in data set [1] is 100 to 500 µM. Regarding `CC(C)(C)/[N+]([O-])=C/c1ccccc1C(=O)O` [Compound 7, N-(tert-Butyl)-C-(2-carboxyphenyl)nitrone], the EC50 in data set [1] lay in the range of 100 to 500 µM. Take `O=C(O)c1ccccc1/C=[N+](\[O-])C1CCCCC1` [Compound 8, N-Cyclohexyl-C-(2-carboxyphenyl)nitrone]: in data set [1], the EC50 fell in the range of 10 to 100 µM.

`O=C(O)c1ccccc1/C=[N+](\[O-])Cc1ccccc1` [Compound 9, N-Benzyl-C-(2-carboxyphenyl)nitrone]: the EC50 in data set [1] was 10 to 100 µM. On the same count and under the same terms, the value for `COc1cc(/C=[N+](\[O-])C(C)(C)C)c(C(=O)O)c(OC)c1` [Compound 10, N-(tert-Butyl)-C-(2-carboxy-3,5-dimethoxyphenyl)nitrone] was 500 to 1000 µM. Take `COc1cc(/C=[N+](\[O-])C2CCCCC2)c(C(=O)O)c(OC)c1` [Compound 11, N-Cyclohexyl-C-(2-carboxy-3,5-dimethoxyphenyl)nitrone]: the EC50 in data set [1] lay within 10 to 100 µM. Same read-out and setting: the value for `COc1cc(/C=[N+](\[O-])Cc2ccccc2)c(C(=O)O)c(OC)c1` [Compound 12, N-Benzyl-C-(2-carboxy-3,5-dimethoxyphenyl)nitrone] was 10 to 100 µM; that for `CN(C)C(=O)c1ccccc1/C=[N+](\[O-])C(C)(C)C` [Compound 16, N-(tert-Butyl)-C-[2-(N,N-dimethylcarbamoyl)phenyl]nitrone] was 100 to 500 µM. In the case of `CN1CCN(S(=O)(=O)c2ccc(/C=[N+](\[O-])C(C)(C)C)cc2)CC1` [Compound 22, N-(tert-Butyl)-C-[4-(4-methyl-piperazine-1-sulfonyl)phenyl]nitrone], in data set [2], the peak level (Cmax) was 0.703 µg/mL, the clearance was 2.21 L/h/kg, the Vd was found to be 1.83 L/kg and the Tmax (usually the time from dosing to the highest level) is 14.4 min. Moreover, in data set [2], the bioavailability – broadly, the share of a dose that reaches the circulation, judged against a reference dose that is usually intravenous – was 15.6% and the half-life is 34.2 min. Besides, the EC50 in data set [1] was over 1000 µM. In the case of `CCNS(=O)(=O)c1ccc(/C=[N+](\[O-])C(C)(C)C)cc1` [Compound 24, N-(tert-Butyl)-C-[4-(ethylsulfamoyl)phenyl]nitrone], in data set [2], the concentration peaked (Cmax) at 0.198 µg/mL, the clearance was 3.54 L/h/kg, the Vd stood at 2.58 L/kg and the Tmax stood at 12 min. In addition, in data set [2], the bioavailability was determined as 7.19% and the half-life is 31.2 min. Moreover, the EC50 in data set [1] is over 1000 µM. For `CC(C)(C)/[N+]([O-])=C/c1ccc(S(=O)(=O)Nc2ccc(F)cc2)cc1` [Compound 25, N-(tert-Butyl)-C-[4-(4-fluoro-phenylsulfamoyl)phenyl]nitrone], in data set [2], the Cmax (in general, the highest concentration seen after dosing) was 0.01 µg/mL; the clearance is 1.76 L/h/kg; the Vd came to 1.12 L/kg; the Tmax came out at 15 min. In data set [2], the bioavailability worked out at 0.85% and the half-life was 25.8 min. In data set [1], the EC50 was over 1000 µM. As for `COC(=O)c1[nH]c2ccccc2c1/C=[N+](\[O-])C(C)(C)C` [Compound 77, N-(tert-Butyl)-C-[2-(methoxycarbonyl)-1H-indol-3-yl]nitrone], the EC50 in data set [1] was over 1000 µM. In the case of `COC(=O)c1[nH]c2ccccc2c1/C=[N+](\[O-])C1CCCCC1` [Compound 78, N-Cyclohexyl-C-[2-(methoxycarbonyl)-1H-indol-3-yl]nitrone], the EC50 in data set [1] is over 1000 µM.

Take `COC(=O)c1[nH]c2ccccc2c1/C=[N+](\[O-])Cc1ccccc1` [Compound 79, N-Benzyl-C[2-(methoxycarbonyl)-1H-indol-3-yl]nitrone]: the EC50 in data set [1] was over 1000 µM. Turning to `CC(C)(C)[N+]([O-])=Cc1ccccc1` [PBN, C-(phenyl)-N-(tert-butyl)nitrone, reference compound], the EC50 in data set [1] is over 1000 µM. Turning to `CC(C)(C)[N+]([O-])=Cc1ccccc1S(=O)(=O)O` [SPBN, C-(2-sulfophenyl)-N-(tert-butyl)nitrone, sodium salt, reference compound], the EC50 in data set [1] was over 1000 µM. On to `Cc1c(C)c2c(c(C)c1O)CCC(C)(C(=O)O)O2` (centres unmarked) [Trolox, 6-hydroxy-2,5,7,8-tetramethylchromane-2-carboxylic acid, reference compound], for which the EC50 in data set [1] is under 10 µM.
